Data on ten molecules can be found in ChEMBL document CHEMBL1201862, “PubChem BioAssay data set” (2004).

Structures are written as SMILES.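 Following 48 hours of exposure in 96-well plates, responses at five concentrations were used to interpolate endpoints linearly. Abbreviation: GI50, concentration required for 50% inhibition of growth.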 Active and inactive are the calls of the source. No stated cut-off is given here; in the data, active = GI50 up to about 1.1 µM and inactive = higher.

Among the test systems are 786-0; A549; ACHN; DU-145; Hs-578T; IGROV-1; KM12; LOX IMVI; M14; MCF7; MDA-MB-231; MDA-N; NCI-H23; OVCAR-4; OVCAR-5; SK-OV-3; SNB-75; SR; T47D; UACC-62.
What all share (assay): growth of human tumour cells (NCI), 48 h

Take `CC(C)(C)OC(=O)N[C@H]1CC2(C=C(Cl)C(=O)C(Cl)=C2)OC1=O`: the GI50 is 14.9 µM (inactive) with 786-0; 38.3 µM (inactive) in the assay on A549; 14.6 µM (inactive) with ACHN; 27.9 µM (inactive) in the assay on DU-145; 26.4 µM (inactive) in the assay on Hs-578T; 18.7 µM (inactive) in the assay with IGROV-1. Besides, the GI50 with KM12 was 17.7 µM (inactive); in the assay on LOX IMVI, 13.2 µM (inactive); in the assay with M14 it was 14.4 µM (inactive); in the assay on MCF7 it was 6.79 µM (inactive); with MDA-MB-231, 17.1 µM (inactive); in the assay on MDA-N, 17.1 µM (inactive). Besides, the GI50 with NCI-H23 was 17.3 µM (inactive); in the assay with OVCAR-4, 16.3 µM (inactive); in the assay on OVCAR-5, 19.5 µM (inactive); with SK-OV-3 it was > 46.5 µM (inactive); with SNB-75, 20.5 µM (inactive); in the assay with SR it was 1.93 µM (inactive). The GI50 in the assay on T47D is 14.9 µM (inactive); in the assay with UACC-62 it was 16.5 µM (inactive).

As to `O=C(CC(C(=O)c1ccoc1)c1ccco1)c1ccco1` (stereo not drawn), the GI50 in the assay with 786-0 was > 100 µM (inactive); in the assay with A549, 79.6 µM (inactive); with ACHN it was > 100 µM (inactive); with DU-145, > 100 µM (inactive); with Hs-578T it was > 100 µM (inactive); in the assay on IGROV-1, > 100 µM (inactive). For the same molecule, the GI50 is 57 µM (inactive) with KM12; > 100 µM (inactive) in the assay with LOX IMVI; > 100 µM (inactive) with M14; > 100 µM (inactive) in the assay on MCF7; 18.6 µM (inactive) in the assay on MDA-MB-231; 29.4 µM (inactive) with MDA-N. Further, the GI50 was 98.4 µM (inactive) in the assay on NCI-H23; 43.1 µM (inactive) with OVCAR-4; > 100 µM (inactive) in the assay with OVCAR-5; > 100 µM (inactive) in the assay with SK-OV-3; > 100 µM (inactive) in the assay on SNB-75; 85.7 µM (inactive) in the assay on SR. Further, the GI50 in the assay on T47D and with UACC-62 was > 100 µM (inactive) in each case.

`CC[C@H](C)[C@H]1NC(=O)[C@@H](NC(=O)[C@@H](CC(C)C)N(C)C(=O)C2CCCN2C(=O)[C@H](C)O)[C@@H](C)OC(=O)[C@@H]2Cc3ccccc3CN2C(=O)[C@@H]2CCCN2C(=O)[C@H](CC(C)C)NC(=O)[C@@H](C)C(=O)[C@H](C(C)C)OC(=O)C[C@@H]1O` (stereo partly drawn): the GI50 was 0.368 µM (active) in the assay on 786-0; 0.434 µM (active) in the assay on A549; 1.55 µM (inactive) in the assay on ACHN; 0.341 µM (active) in the assay on DU-145; 0.314 µM (active) in the assay with Hs-578T; 0.476 µM (active) in the assay with IGROV-1. Moreover, the GI50 in the assay on KM12 was 0.104 µM (active); in the assay with LOX IMVI it was 0.361 µM (active); in the assay on M14, 1.17 µM (inactive); with MCF7 it was 0.0596 µM (active); with MDA-MB-231, 1.04 µM (active); in the assay with MDA-N, 0.388 µM (active). Besides, the GI50 is 0.641 µM (active) in the assay on OVCAR-4; 0.822 µM (active) in the assay with OVCAR-5; 0.547 µM (active) in the assay with SK-OV-3; 0.121 µM (active) in the assay with SNB-75; 0.0811 µM (active) with SR; 0.323 µM (active) with T47D. The GI50 with UACC-62 is 0.106 µM (active).

For the molecule `Cc1cc(S(=O)(=O)Nc2n[nH]c(-c3ccc(Cl)cc3)n2)c(SSc2cc(Cl)c(C)cc2S(=O)(=O)Nc2n[nH]c(-c3ccc(Cl)cc3)n2)cc1Cl`, the GI50 with 786-0 was 33.7 µM (inactive); in the assay with A549 it was 41.5 µM (inactive); in the assay on ACHN, 32.1 µM (inactive); in the assay on DU-145, 32.1 µM (inactive); in the assay with Hs-578T it was 28.2 µM (inactive); in the assay with IGROV-1, 22 µM (inactive). Further, the GI50 in the assay with KM12 was 29.2 µM (inactive); with LOX IMVI, 26.2 µM (inactive); in the assay with M14, 39.9 µM (inactive); with MCF7, 24.6 µM (inactive); in the assay on MDA-MB-231 it was 31.3 µM (inactive); in the assay with MDA-N it was 41.3 µM (inactive). Besides, the GI50 with NCI-H23 was 34.5 µM (inactive); with OVCAR-4, 28.5 µM (inactive); with OVCAR-5, 22 µM (inactive); with SK-OV-3 it was 39.5 µM (inactive); in the assay on SNB-75 it was 27.9 µM (inactive); in the assay with SR, 25.5 µM (inactive). The GI50 in the assay with T47D is 14.6 µM (inactive); in the assay on UACC-62, 21.4 µM (inactive).

For `CCN(CC)CCn1c2cc3c(cc2c(=O)c2cccnc21)OCO3`, the GI50 was 4.45 µM (inactive) in the assay with 786-0; 5.11 µM (inactive) in the assay on A549; 3.52 µM (inactive) in the assay with ACHN; > 10 µM (inactive) in the assay with DU-145; > 10 µM (inactive) in the assay with Hs-578T; 4.88 µM (inactive) in the assay with IGROV-1. For the same molecule, the GI50 in the assay on KM12 is 5.94 µM (inactive); in the assay with LOX IMVI, 3.71 µM (inactive); in the assay with M14, 4.95 µM (inactive); with MCF7 it was 3.89 µM (inactive); with MDA-MB-231, 4.44 µM (inactive); in the assay on MDA-N, 8.93 µM (inactive). The GI50 is 8.75 µM (inactive) in the assay with NCI-H23; 5.36 µM (inactive) with OVCAR-4; 4.44 µM (inactive) in the assay with OVCAR-5; 9.84 µM (inactive) with SK-OV-3; 3.83 µM (inactive) in the assay with SNB-75; 4.34 µM (inactive) in the assay with SR. For the same molecule, the GI50 in the assay with T47D is > 10 µM (inactive); with UACC-62, 8.75 µM (inactive).

`NC(CC(O)(c1ccccc1)c1ccccc1)c1ccccc1S` (stereo not drawn): the GI50 was 15.9 µM (inactive) in the assay with 786-0; 14.7 µM (inactive) with A549; 13.1 µM (inactive) in the assay on ACHN; > 10 µM (inactive) in the assay on DU-145; 20.3 µM (inactive) in the assay with Hs-578T; > 10 µM (inactive) in the assay on IGROV-1. Moreover, the GI50 in the assay with KM12 was 12.5 µM (inactive); in the assay with LOX IMVI, 13.8 µM (inactive); with M14, 15.4 µM (inactive); in the assay with MCF7, 15.2 µM (inactive); with MDA-MB-231 it was 17.1 µM (inactive); in the assay on MDA-N, 15.6 µM (inactive). The GI50 in the assay on NCI-H23 was 18.5 µM (inactive); in the assay on OVCAR-4 it was 15.9 µM (inactive); with OVCAR-5, 15.9 µM (inactive); in the assay with SK-OV-3 it was 18.7 µM (inactive); in the assay with SNB-75 it was 15 µM (inactive); in the assay with SR, 23.6 µM (inactive). The GI50 with T47D was 16.8 µM (inactive); with UACC-62, 15.5 µM (inactive).

Consider `C=C1[C@H](OCC(C)C)[C@@H](OCC(C)C)[C@@H](O)C(C)(C)/C=C/[C@H](C)C(=O)[C@@]2(O)C[C@H](C)[C@H](O)[C@@H]2[C@H]1OCC(C)C`, for which the GI50 in the assay with 786-0 was 4.49 µM (inactive); in the assay on ACHN it was > 7.5 µM (inactive); with DU-145 it was > 7.5 µM (inactive); in the assay with Hs-578T, 2.77 µM (inactive); in the assay on KM12, > 7.5 µM (inactive); in the assay on LOX IMVI, > 7.5 µM (inactive). The GI50 in the assay on M14 is 2.14 µM (inactive); with MCF7, > 7.5 µM (inactive); in the assay with MDA-MB-231, 3.25 µM (inactive); with MDA-N it was 1.54 µM (inactive); in the assay on NCI-H23, > 7.5 µM (inactive); with OVCAR-4, > 7.5 µM (inactive). Moreover, the GI50 is > 7.5 µM (inactive) in the assay on OVCAR-5; > 7.5 µM (inactive) in the assay with SK-OV-3; 3.02 µM (inactive) in the assay with SNB-75; > 7.5 µM (inactive) in the assay with SR; > 7.5 µM (inactive) in the assay on T47D; 7.19 µM (inactive) with UACC-62.

With `CC(C)(C)OC(=O)N/N=C(/N)Cc1ccc(Cl)cc1`, the GI50 in the assay with 786-0, in the assay with A549, in the assay on ACHN, with DU-145, with Hs-578T and with IGROV-1 was > 100 µM (inactive) each time. Besides, the GI50 in the assay with KM12, with LOX IMVI, in the assay with M14, with MCF7, in the assay with MDA-MB-231 and in the assay with MDA-N was > 100 µM (inactive) in each case. Also, the GI50 was > 100 µM (inactive) in the assay on OVCAR-4; > 100 µM (inactive) in the assay on OVCAR-5; > 100 µM (inactive) in the assay with SK-OV-3; > 100 µM (inactive) in the assay on SNB-75; 51.6 µM (inactive) with SR; > 100 µM (inactive) in the assay on T47D. For the same molecule, the GI50 with UACC-62 was > 100 µM (inactive).

As for `COc1cc(-c2cc(=O)c3c(OC)c(OC)c(OC)c(OC)c3o2)c(OC)c(OC)c1OC`, the GI50 with 786-0 is 47.5 µM (inactive); with A549, 48.1 µM (inactive); in the assay on ACHN, 22 µM (inactive); in the assay on DU-145, 43.4 µM (inactive); in the assay with Hs-578T, 19.8 µM (inactive); in the assay with IGROV-1, 12.3 µM (inactive). Also, the GI50 in the assay on KM12 was 21.9 µM (inactive); with LOX IMVI, 32.1 µM (inactive); in the assay with M14, 51.5 µM (inactive); with MCF7, 47.2 µM (inactive); in the assay with MDA-MB-231, 24.3 µM (inactive); in the assay on MDA-N it was 41.4 µM (inactive). Moreover, the GI50 is 30.7 µM (inactive) in the assay on OVCAR-4; > 100 µM (inactive) in the assay with OVCAR-5; 76.7 µM (inactive) in the assay with SK-OV-3; 16.4 µM (inactive) in the assay with SNB-75; 27.4 µM (inactive) in the assay on SR; 16.2 µM (inactive) in the assay with T47D. The GI50 in the assay on UACC-62 is 21.2 µM (inactive).

Turning to `Cc1c(C)c(C)c(-n2c(=O)n(C)c(=O)n2-n2c(=O)n(C)c(=O)n2-c2c(C)c(C)c(C)c(C)c2C)c(C)c1C`, the GI50 in the assay with 786-0 is > 100 µM (inactive); with A549 it was > 100 µM (inactive); in the assay on DU-145 it was > 100 µM (inactive); in the assay with Hs-578T, 0.0533 µM (active); in the assay on IGROV-1 it was 51.5 µM (inactive); in the assay on KM12, > 100 µM (inactive). Moreover, the GI50 in the assay on LOX IMVI is 92.5 µM (inactive); in the assay with M14, > 100 µM (inactive); in the assay on MCF7 it was > 100 µM (inactive); in the assay on MDA-MB-231 it was > 100 µM (inactive); in the assay on MDA-N it was > 100 µM (inactive); with OVCAR-4, > 100 µM (inactive). For the same molecule, the GI50 in the assay with OVCAR-5 was > 100 µM (inactive); in the assay on SK-OV-3, > 100 µM (inactive); in the assay on SNB-75 it was > 100 µM (inactive); in the assay with SR, 20.5 µM (inactive); with T47D, > 100 µM (inactive); in the assay with UACC-62, > 100 µM (inactive).
